US9289411B2, “Anti-HCV agent” (NATIONAL UNIVERSITY CORPORATION OKAYAMA UNIVERSITY, priority 2011, dated 2016)

Experiments:
[1] = Cytotoxic effect summarized over cells derived from various HCV strains (WST-1); type: cell-based; settings: human; seven full-length HCV-RNA-replicating cell lines; read-out: CC50 values, range over all cells
Description: (§3) Assay systems using OR6 cells (HCV-O strain), 1B-4R cells (HCV-1B-4 strain), and AH1R cells (HCV-AH1R strain) as HuH-7 cell-derived full-length HCV-RNA-replicating cells, and ORL8 cells (HCV-O strain), ORL11 cells (HCV-O strain), 1B-4RL cells (HCV-1B-4 strain), and KAH5RL cells (HCV-KAH5 strain) as Li23 cell-derived full-length HCV-RNA-replicating cells were used for the quantitative analysis of anti-HCV activity and evaluation of a cytotoxic effect in the present invention. […] In addition, all the HCV strains belong to genotype 1b.

KAH5RL cells = experiment: Cytotoxic effect, WST-1 cell proliferation assay in KAH5RL cells; type: cell-based, human; settings: KAH5RL vs ORL8
Description: (§4) Assay systems using OR6 cells (HCV-O strain), 1B-4R cells (HCV-1B-4 strain), and AH1R cells (HCV-AH1R strain) as HuH-7 cell-derived full-length HCV-RNA-replicating cells, and ORL8 cells (HCV-O strain), ORL11 cells (HCV-O strain), 1B-4RL cells (HCV-1B-4 strain), and KAH5RL cells (HCV-KAH5 strain) as Li23 cell-derived full-length HCV-RNA-replicating cells were used for the quantitative analysis of anti-HCV activity and evaluation of a cytotoxic effect in the present invention.
(§5) In the measurement of the renilla luciferase activity and the measurement by the WST-1 method, experiments were performed in three wells independent of each other, and their means and standard deviation were calculated.
(§6) The concentrations of N-89 and N-251 were the same as the concentrations used for the measurement of the luciferase activity, and the WST-1 cell proliferation assay was performed 72 hours after the addition.

[2] = as above; type: cell-based, human; settings: human; KAH5RL cells, 72 hours, WST-1
Description: as §4, §5, §6

[3] = test system: HCV core protein in ORL8 cells; experiment: Western blot analysis of HCV core protein expression in ORL8 cells; type: cell-based, HCV genotype 1b; settings: 72 hours, 0.078-5 μM
Protocol: N-89 and N-251 were diluted with DMSO. Sampling was performed with 100 μL of 2×SDS buffer 72 hours after the culture. 10 μL of a sample were applied to SDS-PAGE electrophoresis and subjected to Western blot analysis using an anti-HCV core antibody and an anti-β-actin antibody according to a conventional method. It should be noted that for the detection of β-actin, a sample diluted 10-fold with 2×SDS buffer in advance was used.

renilla luciferase = experiment: Influence on renilla luciferase activity in lysate of ORL8 cells; type: biochemical; settings: ORL8 cell lysate, concentrations of up to 20 μM
Protocol: In the ORL8 cells, the anti-HCV activity is evaluated by measuring the activity of renilla luciferase as a product of an exogenous gene introduced so as to be linked to HCV RNA.
Thus, N-89 or N-251 was added (5 μL) to a lysate (10 μL) of the ORL8 cells (1×10^5 cells, medium for Li23 cell line) so as to achieve final concentrations of 0, 5, 10, and 20 μM, and 50 μL of a substrate were further added thereto. Then, the luciferase activity was measured.
An actual luciferase activity value (RL activity value) at 100% on the ordinate axis was 2.2×10^5 in the case of N-89 and 2.8×10^5 in the case of N-251.

[4] = test system: HCV RNA in OL8 cells (HCV-O strain-derived full-length HCV-genome-replicating cells); experiment: Production of cured cells from OL8 cells subcultured for 3 years; type: cell-based; settings: treated similarly with N-89
Protocol: (§1) 4×10^5 ORL8 cells were plated onto a 10-cm plate (10 mL of medium in the absence of G418) (Day 1), and N-89 was added so as to achieve a final concentration of 1 μM the next day (Day 2). After 3 days (Day 5), the cells were diluted 10-fold, and N-89 was added again the next day. This operation was repeated an additional four times (N-89 was added six times in total: Days 2, 6, 10, 14, 18, and 22). At the time of the dilution of the cells (Day 13), which was performed 3 days after the third addition of N-89, the cells were divided into two plates with medium in the presence of G418 (neomycin) (0.3 mg/mL) and medium in the absence of G418. Then, N-89 was added three times, a plurality of plates were prepared at the time of the final dilution of the cells, and finally, one of the plates for each of the media was subjected to CBB staining (Day 26).
(§2) Further, cells obtained by subculturing HCV-O strain-derived full-length HCV-genome-replicating cells (OL8 cells and OL11 cells) (Kato et al., Virus Res. 146:41-50, 2009) for 3 years (the cells had acquired the status of genetic diversity (called quasispecies) owing to various mutations in an HCV genome caused by the sustained replication of the HCV genome) were used and similarly treated with N-89.

HCV RNA in ORL8 cells = experiment: Production of cured cells from ORL8 cells by treatment with N-89; type: cell-based, HCV genotype 1b
Protocol: A drug treatment method for the cells was performed according to a method with IFN-γ (1,000 IU/mL) (Abe K et al., Virus Res. 125:88-97, 2007) generally used in the production of cured cells by the inventors of the present invention.
as §1
FIG. 14 show the results. […] The ORL8 cells cultured in the medium in the presence of G418 were all killed, whereas the ORL8 cells cultured in the absence of G418 became confluent at a normal proliferation rate. In order to confirm that HCV RNA was eliminated from the cells, Western blot analysis was performed using an anti-HCV core antibody and an anti-HCV NS5B antibody (FIG. 14c). The ORL8 cells were used as a positive control.

[5] = test system: HCV-RNA replication in ORL8 cells; experiment: Influence of oxidizing agents KNO3 and NaClO4 on anti-HCV activity in ORL8 cells; type: cell-based, HCV genotype 1b; settings: N-89 0.5 μM + KNO3 or NaClO4 10 μM, 72 hours
Protocol: The effects of addition of KNO3 and NaClO4 on the anti-HCV activity of N-89 were examined using ORL8 cells.
N-89 and KNO3 or NaClO4 were simultaneously added so that the concentrations of N-89 and KNO3 or NaClO4 were set to 0.5 μM and 10 μM, respectively. The luciferase activity was measured 72 hours after the culture.

[6] = Cytotoxic effect, WST-1 cell proliferation assay in AH1R cells; type: cell-based; settings: human
Description: as §3, §5
The WST-1 cell proliferation assay was performed 72 hours after the culture.

[7] = test system: HCV RNA in OL11 cells (HCV-O strain-derived full-length HCV-genome-replicating cells); experiment: Production of cured cells from OL11 cells subcultured for 3 years; type: cell-based; settings: treated similarly with N-89
Protocol: as §1, §2

Compound | CC50 [1] | CC50 fold higher in KAH5RL cells than in ORL8 cells (KAH5RL cells) | CC50 at 72 h [2] | level of the HCV core protein (Western blot) [3] | inhibition on the renilla luciferase activity (renilla luciferase) | production of cured cells [4] | HCV core protein and NS5B in treated cells (Western blot) (HCV RNA in ORL8 cells; ORL8 cells treated with N-89 1 μM, added six times, Day 26) | treated cells cultured in medium in the presence of G418 (CBB staining) (HCV RNA in ORL8 cells; ORL8 cells, N-89 1 μM, G418 0.3 mg/mL) | production of cured cells (HCV RNA in ORL8 cells; ORL8 cells, N-89 1 μM, added six times) | influence of KNO3 or NaClO4 in combination on the anti-HCV activity [5] | CC50 at 72 h [6] | production of cured cells [7]
OCCCCCCC1COOC2(CCCCCCCCCCC2)OOC1 [N-251, 6-(1,2,6,7-tetraoxaspiro[7,11]nonadec-4-yl)] | 490 to 3800 nM | about 2.5 fold | 3200 nM | reduced depending on the concentrations | did not show any inhibition | – | – | – | – | – | – | –
C1CCCCCC2(CCCCC1)OOCCCOO2 [N-89, 1,2,6,7-tetraoxaspiro[7,11]nonadecane] | 500 to 9300 nM | – | – | reduced depending on the concentrations | did not show any inhibition | cured cells were able to be produced | none of a core protein and NS5B was detected | all killed | cured cells were able to be produced | no influence | ~500 nM | cured cells were able to be produced
